According to ChEMBL document CHEMBL1201862, “PubChem BioAssay data set” (2004):
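Tested at 5 concentrations; 48 h exposure; 96-well plates; endpoints linearly interpolated, else capped at highest concentration. The concentration for 50% growth inhibition is given as GI50.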 Activity calls are given as the source filed them. Rule as the data show it: active = GI50 up to about 1.1 µM and inactive = higher.

What was measured:
Assay in all cases: NCI-60 cell line screen, 48 h
IGROV-1 = test system: IGROV-1
NCI-H23 = test system: NCI-H23
A498 = test system: A498
COLO 205 = test system: COLO 205
U-251 = test system: U-251
NCI-H460 = test system: NCI-H460
SK-OV-3 = test system: SK-OV-3
K562 = test system: K562
KM12 = test system: KM12
NCI-H226 = test system: NCI-H226
M19-MEL = test system: M19-MEL
HCT-116 = test system: HCT-116
SF-295 = test system: SF-295
MCF7 = test system: MCF7
LXFL 529 = test system: LXFL 529
786-0 = test system: 786-0
CCRF-CEM = test system: CCRF-CEM
SK-MEL-5 = test system: SK-MEL-5
M14 = test system: M14
CAKI-1 = test system: CAKI-1

Measured: GI50

O=C1CC(c2n[nH]c3ccccc23)C(=O)N1c1ccccc1 (stereo not given)
inactive: IGROV-1 > 100 µM | NCI-H23 > 100 µM | A498 > 100 µM | COLO 205 > 93.8 µM | U-251 > 100 µM | NCI-H460 > 100 µM | SK-OV-3 > 100 µM | K562 43.9 µM | KM12 > 100 µM | NCI-H226 > 88.5 µM | M19-MEL > 100 µM | HCT-116 > 100 µM | SF-295 > 100 µM | MCF7 > 100 µM | LXFL 529 > 95.9 µM | 786-0 > 100 µM | CCRF-CEM 29.2 µM | SK-MEL-5 > 100 µM | M14 > 100 µM | CAKI-1 > 100 µM
